Results from US20020169111A1, “Reversal of multidrug resistance in human colon carcinoma cells” (American Cyanamid Comany, priority 1998, published 2002).
Where two headings read alike, the source gives them in different places.

How the values were obtained:
S1-M1-3.2 cells [1] = conditions: for concentration giving 40% cell death (compound alone) / activity in the reversal assay compared to FTC, fold lower / Per Cent Survival with 3.2 μM mitoxantrone / Per Cent Survival Alone / Difference Score: S1-M1-3.2 cells; for activity in the reversal assay compared to FTC, fold lower: Table 7 versus Table 8; for Per Cent Survival Alone: 3 days; for Difference Score: survival alone minus survival with 3.2 μM mitoxantrone; for Toxicity (>20%): compound alone, concentration that causes greater than 20% cell death of S1-M1-3.2 cells; for IC50: read-out: IC50 (μM), resensitizing S1-M1-3.2 cells to mitoxantrone, with 3.2 μM mitoxantrone, 50% cancer cell death
Procedure: One of the first reported molecules with reversing activity was verapamil, a calcium channel blocker. […] Cells were plated into 96-well dishes (100 μl/well) in growth medium supplemented with 5% FBS. […] Reversal agents were tested from 0.1-80 μM (triplicate points per dose). In parallel wells, cells were grown in the presence of the reversal agent alone.
The Difference Score is the difference in the percentage of cells surviving when the drug was given alone minus the percentage of cells surviving when the drug was given along with the antitumor agent.
Cell survival was estimated using the Sulforhodamine (SRB) assay.

S1-M1-3.2 cells [2] = test: Cytotoxicity of antitumor agents, 3-day SRB assay, mitoxantrone-selected cells; type: cell-based, human; conditions: relative to S1; 2-7 independent experiments
Procedure: Cells were cultured for three days in the presence of the antitumor agent (triplicate points per dose). Following a 3-day growth period, cells were fixed in 10% trichloroacetic acid (TCA) for 1 hour, washed extensively with water, and cell-associated protein was stained using 0.1% sulforhodamine B (SRB), a protein binding reagent [Rubinstein et al., Journal of the National Cancer Institute 82, 1113-1118 (1990) and Skehan et al., Journal of the National Cancer Institute 82, 1107-1112 (1990)]. Excess reagent was removed by washing plates in 5% acetic acid, the dye was solubilized in 10 mM Tris base, and absorbance determined in a UV Max spectrophotometer (Molecular Devices, Menlo Park, Calif.) at 540 nm. Cell survival was estimated relative to control wells (no drugs). EC50 values (μM) were estimated from cytotoxicity curves. For S1, the values shown [mean ±SE (number of independent observations)] are taken from Zhang et al., “P-Glycoprotein Mediates Profound Resistance to Bisantrene,” Oncol. Res., 6:291-301, 1994. Values for S1-M1-3.2 are compiled from 2-7 independent experiments.

COc1ccc2c3c4n(c2c1)[C@@H](C=C(C)C)OOC(C)(C)C[C@@H]4N1C(=O)[C@@H]2CCCN2C(=O)[C@]1(O)[C@H]3OCC=C(C)C [Fumitremorgin A]
concentration giving 40% cell death (compound alone) (S1-M1-3.2 cells [1]): 20 µM
activity in the reversal assay compared to FTC, fold lower (S1-M1-3.2 cells [1]): 20 fold
Per Cent Survival with 3.2 μM mitoxantrone (S1-M1-3.2 cells [1]; drug 0.1 μM): 96 ± 2 Per Cent
Per Cent Survival Alone (S1-M1-3.2 cells [1]; drug 0.1 μM alone): 95 ± 1 Per Cent
Difference Score (S1-M1-3.2 cells [1]; drug 0.1 μM): −1
Per Cent Survival with 3.2 μM mitoxantrone (S1-M1-3.2 cells [1]; drug 0.5 μM): 95 ± 4 Per Cent
Per Cent Survival Alone (S1-M1-3.2 cells [1]; drug 0.5 μM alone): 96 ± 2 Per Cent
Difference Score (S1-M1-3.2 cells [1]; drug 0.5 μM): 1
Per Cent Survival with 3.2 μM mitoxantrone (S1-M1-3.2 cells [1]; drug 1 μM): 94 ± 5 Per Cent
Per Cent Survival Alone (S1-M1-3.2 cells [1]; drug 1 μM alone): 96 ± 1 Per Cent
Difference Score (S1-M1-3.2 cells [1]; drug 1 μM): 2
Per Cent Survival with 3.2 μM mitoxantrone (S1-M1-3.2 cells [1]; drug 5 μM): 64 ± 4 Per Cent
Per Cent Survival Alone (S1-M1-3.2 cells [1]; drug 5 μM alone): 96 ± 1 Per Cent
Difference Score (S1-M1-3.2 cells [1]; drug 5 μM): 32
Per Cent Survival with 3.2 μM mitoxantrone (S1-M1-3.2 cells [1]; drug 10 μM): 40 ± 6 Per Cent
Per Cent Survival Alone (S1-M1-3.2 cells [1]; drug 10 μM alone): 89 ± 9 Per Cent
Difference Score (S1-M1-3.2 cells [1]; drug 10 μM): 49
Per Cent Survival with 3.2 μM mitoxantrone (S1-M1-3.2 cells [1]; drug 20 μM): 35 ± 5 Per Cent
Per Cent Survival Alone (S1-M1-3.2 cells [1]; drug 20 μM alone): 59 ± 4 Per Cent
Difference Score (S1-M1-3.2 cells [1]; drug 20 μM): 24
Per Cent Survival with 3.2 μM mitoxantrone (S1-M1-3.2 cells [1]; drug 40 μM): 34 ± 4 Per Cent
Per Cent Survival Alone (S1-M1-3.2 cells [1]; drug 40 μM alone): 50 ± 8 Per Cent
Difference Score (S1-M1-3.2 cells [1]; drug 40 μM): 16
Per Cent Survival with 3.2 μM mitoxantrone (S1-M1-3.2 cells [1]; drug 80 μM): 34 ± 4 Per Cent
Per Cent Survival Alone (S1-M1-3.2 cells [1]; drug 80 μM alone): 41 ± 8 Per Cent
Difference Score (S1-M1-3.2 cells [1]; drug 80 μM): 7
Toxicity (>20%) (S1-M1-3.2 cells [1]): 15.0 µM
IC50 (S1-M1-3.2 cells [1]): 7 µM

COc1ccc2c3c(n(CC=C(C)C)c2c1)[C@H](C=C(C)C)N1C(=O)[C@@H]2CCCN2C(=O)[C@]1(O)[C@H]3O [Fumitremorgin B]
concentration giving 40% cell death (compound alone) (S1-M1-3.2 cells [1]): 20 µM
activity in the reversal assay compared to FTC, fold lower (S1-M1-3.2 cells [1]): 14 fold
Per Cent Survival with 3.2 μM mitoxantrone (S1-M1-3.2 cells [1]; drug 0.1 μM): 91 ± 5 Per Cent
Per Cent Survival Alone (S1-M1-3.2 cells [1]; drug 0.1 μM alone): 94 ± 1 Per Cent
Difference Score (S1-M1-3.2 cells [1]; drug 0.1 μM): 3
Per Cent Survival with 3.2 μM mitoxantrone (S1-M1-3.2 cells [1]; drug 0.5 μM): 90 ± 3 Per Cent
Per Cent Survival Alone (S1-M1-3.2 cells [1]; drug 0.5 μM alone): 95 ± 2 Per Cent
Difference Score (S1-M1-3.2 cells [1]; drug 0.5 μM): 5
Per Cent Survival with 3.2 μM mitoxantrone (S1-M1-3.2 cells [1]; drug 1 μM): 87 ± 1 Per Cent
Per Cent Survival Alone (S1-M1-3.2 cells [1]; drug 1 μM alone): 93 ± 0 Per Cent
Difference Score (S1-M1-3.2 cells [1]; drug 1 μM): 6
Per Cent Survival with 3.2 μM mitoxantrone (S1-M1-3.2 cells [1]; drug 5 μM): 51 ± 4 Per Cent
Per Cent Survival Alone (S1-M1-3.2 cells [1]; drug 5 μM alone): 90 ± 2 Per Cent
Difference Score (S1-M1-3.2 cells [1]; drug 5 μM): 39
Per Cent Survival with 3.2 μM mitoxantrone (S1-M1-3.2 cells [1]; drug 10 μM): 35 ± 1 Per Cent
Per Cent Survival Alone (S1-M1-3.2 cells [1]; drug 10 μM alone): 91 ± 4 Per Cent
Difference Score (S1-M1-3.2 cells [1]; drug 10 μM): 56
Per Cent Survival with 3.2 μM mitoxantrone (S1-M1-3.2 cells [1]; drug 20 μM): 29 ± 1 Per Cent
Per Cent Survival Alone (S1-M1-3.2 cells [1]; drug 20 μM alone): 59 ± 10 Per Cent
Difference Score (S1-M1-3.2 cells [1]; drug 20 μM): 30
Per Cent Survival with 3.2 μM mitoxantrone (S1-M1-3.2 cells [1]; drug 40 μM): 20 ± 2 Per Cent
Per Cent Survival Alone (S1-M1-3.2 cells [1]; drug 40 μM alone): 41 ± 7 Per Cent
Difference Score (S1-M1-3.2 cells [1]; drug 40 μM): 21
Per Cent Survival with 3.2 μM mitoxantrone (S1-M1-3.2 cells [1]; drug 80 μM): 10 ± 1 Per Cent
Per Cent Survival Alone (S1-M1-3.2 cells [1]; drug 80 μM alone): 16 ± 2 Per Cent
Difference Score (S1-M1-3.2 cells [1]; drug 80 μM): 6
Toxicity (>20%) (S1-M1-3.2 cells [1]): 15.0 µM
IC50 (S1-M1-3.2 cells [1]): 5 µM

COc1cc([C@@H]2c3cc4c(cc3[C@@H](O[C@@H]3O[C@@H]5CO[C@@H](c6cccs6)O[C@H]5[C@H](O)[C@H]3O)[C@H]3COC(=O)[C@H]23)OCO4)cc(OC)c1O [VM-26, teniposide]
S1-M1-3.2 (relative resistance) (S1-M1-3.2 cells [2]): 18

COc1ccc(CCN(C)CCCC(C#N)(c2ccc(OC)c(OC)c2)C(C)C)cc1OC (stereo not drawn) [Verapamil, reference compound]
reversal activity in S1-M1-3.2 cells (in words) (S1-M1-3.2 cells [1]): not reversed
Per Cent Survival with 3.2 μM mitoxantrone (S1-M1-3.2 cells [1]; drug 0.1 μM): 98 ± 0 Per Cent
Per Cent Survival Alone (S1-M1-3.2 cells [1]; drug 0.1 μM alone): 100 ± 1 Per Cent
Per Cent Survival with 3.2 μM mitoxantrone (S1-M1-3.2 cells [1]; drug 0.5 μM): 98 ± 1 Per Cent
Per Cent Survival Alone (S1-M1-3.2 cells [1]; drug 0.5 μM alone): 99 ± 1 Per Cent
Per Cent Survival with 3.2 μM mitoxantrone (S1-M1-3.2 cells [1]; drug 1 μM): 98 ± 1 Per Cent
Per Cent Survival Alone (S1-M1-3.2 cells [1]; drug 1 μM alone): 97 ± 2 Per Cent
Per Cent Survival with 3.2 μM mitoxantrone (S1-M1-3.2 cells [1]; drug 5 μM): 97 ± 0 Per Cent
Per Cent Survival Alone (S1-M1-3.2 cells [1]; drug 5 μM alone): 98 ± 5 Per Cent
Per Cent Survival with 3.2 μM mitoxantrone (S1-M1-3.2 cells [1]; drug 10 μM): 94 ± 0 Per Cent
Per Cent Survival Alone (S1-M1-3.2 cells [1]; drug 10 μM alone): 103 ± 4 Per Cent
Per Cent Survival with 3.2 μM mitoxantrone (S1-M1-3.2 cells [1]; drug 20 μM): 93 ± 2 Per Cent
Per Cent Survival Alone (S1-M1-3.2 cells [1]; drug 20 μM alone): 99 ± 4 Per Cent
Per Cent Survival with 3.2 μM mitoxantrone (S1-M1-3.2 cells [1]; drug 40 μM): 83 ± 3 Per Cent
Per Cent Survival Alone (S1-M1-3.2 cells [1]; drug 40 μM alone): 93 ± 6 Per Cent
Per Cent Survival with 3.2 μM mitoxantrone (S1-M1-3.2 cells [1]; drug 80 μM): 58 ± 4 Per Cent
Per Cent Survival Alone (S1-M1-3.2 cells [1]; drug 80 μM alone): 80 ± 24 Per Cent

C(=N\NC1=NCCN1)/c1c2ccccc2c(/C=N/NC2=NCCN2)c2ccccc12 [bisantrene]
S1-M1-3.2 (relative resistance) (S1-M1-3.2 cells [2]): 24

COc1cc([C@@H]2c3cc4c(cc3[C@@H](O[C@@H]3O[C@@H]5CO[C@@H](C)O[C@H]5[C@H](O)[C@H]3O)[C@H]3COC(=O)[C@H]23)OCO4)cc(OC)c1O [etoposide]
S1-M1-3.2 (relative resistance) (S1-M1-3.2 cells [2]): 6

COc1cc(NS(C)(=O)=O)ccc1Nc1c2ccccc2nc2ccccc12 [m-AMSA]
S1-M1-3.2 (relative resistance) (S1-M1-3.2 cells [2]): 11

CC[C@]1(O)C[C@@H]2CN(CCc3c([nH]c4ccccc34)[C@@](C(=O)OC)(c3cc4c(cc3OC)N(C)[C@H]3[C@@](O)(C(=O)OC)[C@H](OC(C)=O)[C@]5(CC)C=CCN6CC[C@]43[C@@H]65)C2)C1 [vinblastine]
S1-M1-3.2 (relative resistance) (S1-M1-3.2 cells [2]): 3
